“And” between values parts separate entries of the source, which are not always exact repeats. Identical values can stand only once. The source made the active and inactive calls. No rule for the calls is given here.
Target: glucose-6-phosphate dehydrogenase-6-phosphogluconolactonase (Plasmodium falciparum 3D7)
Experiment: PfG6PD enzyme inhibitors, kinetic NADPH readout, dose response, orthogonal assay, biochemical, kinetic NADPH detection (AID 540269)
Settings: purified PfG6PD-6PGL

Compound | IC50
CS(=O)(=O)c1ccc(N)c(SSc2cc(S(C)(=O)=O)ccc2N)c1 | 15.2 µM
Cc1cc(C)c[n+](C2=C([O-])c3ccccc3C(=O)/C2=N\S(=O)(=O)c2cccs2)c1 | > 80 µM (inactive)
CCCCC1C(=O)N(c2ccccc2)N(c2ccc(O)cc2)C1=O (stereo unspecified) | > 80 µM (inactive)
CN(C)c1nc(=NCc2cccs2)ss1 | > 80 µM (inactive)
CC(CNc1ccccc1O)C(=O)O (stereo unspecified) | > 80 µM (inactive)
CC1=CC(C)(C)Nc2ccc(OC(=O)CN3C(=O)c4cccc5cccc(c45)C3=O)cc21 | 76.9 µM
O=c1c2ccc(F)cc2sn1-c1ccccc1 | 15.4 µM
COC(=O)c1ccccc1NC1=C/C(=N\S(=O)(=O)c2cccs2)c2ccccc2C1=O | 35.7 µM and 60.4 µM
O=C1/C(=C\c2ccc([N+](=O)[O-])cc2)CS(=O)(=O)C/C1=C/c1ccc([N+](=O)[O-])cc1 | > 80 µM (inactive)
CCOC(=O)c1cnc2ccc(C)cc2c1Sc1ccccc1C(=O)OC | > 80 µM (inactive)
CCn1c(SCC(=O)Nc2ccccc2OC)nnc1-c1cnccn1 | > 80 µM (inactive)
O=c1c2cc(F)ccc2sn1-c1ccccc1Cl | 12.7 µM
CCOC(=O)c1sc(NC(=O)CSc2nnc(Cc3ccccc3)o2)c(C#N)c1C | > 80 µM (inactive)
O=C1C=CC(=O)N1CCNc1ncc(C(F)(F)F)cc1Cl | 34.8 µM
CCS(=O)(=O)N1CCN(c2ccc([N+](=O)[O-])c(NC(C)c3ccccc3)c2)CC1 (stereo unspecified) | > 80 µM (inactive)
COc1ccc(CNC(=O)Cc2cn(C)c3ccccc23)c(OC)c1 | > 80 µM (inactive)
O=c1c2ccccc2sn1-c1ccc(S(=O)(=O)N2CCCCC2)cc1 | > 80 µM (inactive)
C[C@H](NC(=O)c1cc2c(cn1)[nH]c1ccccc12)C(=O)O | > 80 µM (inactive)
CCC1(C)CC(C(N)=S)CCO1 (stereo unspecified) | > 80 µM (inactive)
O=C(CNC(=O)c1ccc(Br)cc1)NCC(=O)OCC(=O)c1ccc([N+](=O)[O-])cc1 | > 80 µM (inactive)
CCC1(CC)Cc2ccccc2C(N)=C1C#N | > 80 µM (inactive)

Compound | IC50
O=C1NC(=O)C(=Cc2ccc(-c3ccccc3[N+](=O)[O-])o2)C(=O)N1 | 69.9 µM
Cc1ccc(NC2=C(NC(=O)c3ccccc3)C(=O)c3ccccc3C2=O)cc1Cl | > 80 µM (inactive)
O=C1CCN(c2ccccc2)N1 | > 80 µM (inactive)
Cc1ccsc1/C=N/NC(=O)c1cccc(S(=O)(=O)Nc2ccccc2Cl)c1 | > 80 µM (inactive)
COc1c(O)ccc2c1CN1CCc3cc4c(cc3C1C2)OCO4 (stereo unspecified) | > 80 µM (inactive)
Clc1cccc(Cl)c1CNc1ccc(N2CCCC2)cc1 | 60 µM
COc1c(O)c(O)c2oc(-c3ccccc3)cc(=O)c2c1OC | 66.9 µM
Cc1ccc(S(=O)(=O)N(C)C)cc1NC(=O)CSc1nc2ncc(Cl)cc2[nH]1 | > 80 µM (inactive)
CCOC(=O)c1ccc(-n2c(N)c(C(=O)NCC3CCCO3)sc2=S)cc1 (stereo unspecified) | > 80 µM (inactive)
O=C(Nc1nnc(C2CC2)s1)c1ccc(Cl)nc1 | 70.1 µM
Cn1c(=O)[nH]c(=O)c2c1nc([N+](=O)[O-])n2Cc1ccccc1 | > 80 µM (inactive)
Cc1ccc(S(=O)(=O)SC/C=C/CSS(=O)(=O)c2ccc(C)cc2)cc1 | 73 µM
Cn1c(-c2sccc2OCc2cccc(C(F)(F)F)c2)n[nH]c1=S | 7.3 µM
COc1cc(NCc2ccccc2O)c2ncccc2c1 | 35 µM
CCN1/C(=C/C=C/C=C/C=C/c2sc3ccccc3[n+]2CC)Sc2ccccc21 | > 80 µM (inactive)
COc1cc(/C=C2\SC(c3ccc(C)cc3)=NC2=O)cc(OC)c1O | > 80 µM (inactive)
NS(=O)(=O)c1ccc(N/N=C/c2ccc(O)c(O)c2O)c([N+](=O)[O-])c1 | > 80 µM (inactive)
Cc1ccc(S(=O)(=O)SCCCSS(=O)(=O)c2ccc(C)cc2)cc1 | 35.6 µM
Cc1ccccc1OCC(=O)N/N=C/c1ccc(Sc2nc3ccccc3s2)o1 | > 80 µM (inactive)
O=C(Nc1nnc(S(=O)(=O)N2CCCCC2)s1)c1cccc(Br)c1 | 23.8 µM
